According to patent US20150038435A1, “N-TERMINALLY MODIFIED OLIGOPEPTIDES AND USES THEREOF” (Novo Nordisk A/S, priority 2012, published 2015):
Starred links: 1 amine or outer side, 2 acyl side, 3 side chain; linkers in the order of their positions; H or OH if unused. Non-standard residues stand in square brackets, D forms with d. Residues, ends and D or L forms follow the SMILES beside them. *: point of attachment. γGlu = O=C(O)[C@H](CCC(=O)[*:2])N[*:1]; Palmitoyl = CCCCCCCCCCCCCCCC(=O)*; Myristoyl = CCCCCCCCCCCCCC(=O)*; Decanoyl = CCCCCCCCCC(=O)*

Key:
Chymotrypsin [1] = experiment: Inhibition of enzymatic degradation of a model GLP-1 (FRET substrate) by chymotrypsin; type: biochemical; conditions: for Slope of the initial increase in fluorescence obtained during incubation with 0.001 mg/ml Chymotrypsin: compound 1 mM; for EC50: read-out: EC50 Chymotrypsin (0.001 mg/ml), 0.001 mg/ml chymotrypsin, 37° C., ± standard error if at least 3 measurements
In short: (§1)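 Initial-rate slopes of fluorescence rise (320 nm ex, 405 nm em), fitted over the linear early phase and averaged from duplicates, were plotted against inhibitor concentration and fitted logistically to give EC50. Reactions ran at 37° C in Dulbecco's PBS, with MCA/DNP GLP-1 FRET substrate added as 10 μl of 100 μM stock.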

Trypsin = experiment: Inhibition of enzymatic degradation of a model GLP-1 (FRET substrate) by trypsin; type: biochemical; conditions: for Slope of the initial increase in fluorescence obtained during incubation with 0.001 mg/ml Trypsin: compound 1 mM; for EC50: read-out: EC50 Trypsin (0.001 mg/ml), 0.001 mg/ml trypsin, 37° C.
In short: as §1

[2] = Stability of N-terminally acylated peptides or oligopeptides in GI juice; type: in vitro ADME; conditions: GI juice (jejunum extract); degradation of the compound itself in jejunum extract from rat; read-out: t 1/2 in rat GI juice
Procedure: (§2) 96 well plates were coated by incubating with 0.4% Bovine serum albumin (BSA) solution for minimum of 60 min. To each well, 210 μl of buffer (Hank's balanced salt solution-4-(2-hydroxyethyl)-1-piperazineethanesulfonic acid (HBSS-HEPES) buffer) with 0.005% Tween 20 and 0.001% BSA, pH 6.5 precipitated with 3 vol. cold 96% ethanol (EtOH) w. 1% TFA), 30 μl of a substrate (100 μM insulin analogue or GLP-1 analogue in buffer) and 30 μl of N-terminally acylated peptide or oligopeptide of the invention (10 mM) were added. The plates were pre-incubated (before adding GI juice) for 60 min at 37° C. After addition of 30 μl of GI juice (10-times diluted in buffer), the plates were incubated for 60 min/37° C. on shaker. Samples (40 μl) were taken at 0, 5, 10, 20, 30 and 60 min, stopped with 3 vol. cold 96% EtOH w. 1% TFA and spun down in plates (4500 rpm for 10 min). Samples were diluted 5 times with the buffer prior to LC-MS analysis. Standard samples (0.1, 0.5, 1.0, 5.0, 10.0 μM) were prepared and treated as the samples. Standard curve was analysed both at the beginning and the end of the sequence. Two replicates of each tested conditions were included. Ion suppression was assessed by analyzing a standard at 1 μM and at 10 μM with 1 mM inhibitor present. Intact insulin or GLP-1 analoues were determined at each sample. The results were plotted against the incubation time. Half-lives of the insulin or GLP-1 analogues were determined by nonlinear regression of the results using, for example Graph Pad Prism. The half-lives were expressed relative to the half-live of the insulin or GLP-1 analogue without inhibitor present by dividing the half-lives obtained in the presence of inhibitor with those obtained in the absence of inhibitors. GI juice was prepared from male Sprague Dawley rats (200-250 g) by excising approximately 20 cm piece of mid jejunum and rinsing the inside with 2.5 ml 0.9% sodium chloride solution. The sodium chloride solution was collected in a centrifuge tube, pooled from all rats (20) and centrifuged at 4500 rpm./10 min/4° C. The supernatant was aliquoted in tubes and stored at −80° C.
Degradation of the N-terminally fatty acid modified peptide or oligopeptide of the invention themselves in jejunum extract from rat (GI juice) and determination of half-lives, was measured as described above (example 200).

[3] = Hydrophobicity: retention time during reverse phase HPLC; type: physicochemical; conditions: Acquity CSH C18; pH 7.2 buffer/CH3CN gradient; 40° C.
Description: The retention time (RT) during reverse phase HPLC was taken as a measure of hydrophobicity of an N-terminally modified peptide or oligopeptide of the invention, where the connection is: The longer the RT, the more hydrophobic N-terminally modified peptide or oligopeptide. The following running conditions were applied during HPLC analysis:
Buffer B: 70% (v/v) aq. CH3CN

GI juice = experiment: Inhibition of GI juice degradation of insulin analogue and GLP-1 analogue; type: biochemical; conditions: rat GI juice
Procedure: as §2, with “To each well, 210 μl of buffer (Hank's balanced salt solution-4-(2-hydroxyethyl)-1-piperazineethanesulfonic acid (HBSS-HEPES) buffer) with 0.005% Tween 20 and 0.001% BSA, pH 6.5 precipitated with 3 vol. cold 96% ethanol (EtOH) w.” left out, “Samples (40 μl) were taken at 0, 5, 10, 20, 30 and 60 min, stopped with 3 vol. cold 96% EtOH w.” left out, “Half-lives of the insulin or GLP-1 analogues were determined by nonlinear regression of the results using, for example Graph Pad Prism.” left out
A14E, B25H, B29K(N(eps)Octadecanedioyl-γGlu-OEG-OEG), desB30 human insulin and N-epsilon26-[2-(2-{2-[2-(2-{2-[(S)-4-Carboxy-4-(17-carboxyheptadecanoylamino)-butyrylamino]ethoxy}ethoxy)acetylamino]ethoxy}ethoxy)acetyl][Aib8,Arg34]GLP-1-(7-37) were used as standards in this assay.
For experiments repeated more than two times, standard deviation is given

Chymotrypsin [4] = experiment: Inhibition of enzymatic degradation of a chromogenic substrate (Example 202); type: biochemical; conditions: substrate N-succinyl-Ala-Ala-Pro-Phe-p-Nitroanilide
Description: The use of chromogenic substrates to monitor activity of proteolytic enzymes is known in the field (for example DelMar, E. G., et al., Anal. Biochem., 99, 316-320, (1979)). For example, N-succinyl-Ala-Ala-Pro-Phe-p-Nitroanilide is commonly used substrate for measuring chymotrypsin activity. Enzymatic cleavage of 4-nitroanilide substrates yields 4-nitroaniline (yellow color under alkaline conditions).
An assay following the increase in absorbance at 395 nm as a function of time was established in 96 well format using Varioskan Flash Multimode Meter (Thermo Scientific). Each well contained 70 μl of Dulbecco's phosphate buffer saline (Invitrogen catalogue #14190-094), 10 μl of N-succinyl-Ala-Ala-Pro-Phe-p-Nitroanilide (Sigma cat# S 7388) in DMSO (different concentrations were used in order to obtain the inhibition constant), 10 μl of N-terminally acylated peptide or oligopeptide of the invention in varying concentration and 10 μl of a stock solution of an enzyme (chymotrypsin, trypsin, elastase, etc.). The incubations were performed at 37° C. Absorbance at 395 nm was measured immediately after addition of the enzyme to the 96 well plate and also every minute for the next 80 minutes. The concentration of the enzyme was optimized to allow determination of slopes for the time course of initial absorbance increase with and without added inhibitors. The slopes were determined by linear regression of the linear part of the fluorescence trace (for example, the first 10 min of the reaction). Each assay was performed in duplicate and average of the two traces was included in the calculations. The relative effect of N-terminally acylated peptide or oligopeptides of the invention on enzymatic degradation of N-succinyl-Ala-Ala-Pro-Phe-p-Nitroanilide was obtained by comparison of the slopes achieved by the same concentration of the N-terminally acylated peptide or oligopeptides. […] This was done by plotting the slopes achieved with different concentrations of the N-terminally acylated peptide or oligopeptides of the invention as a function of their concentrations and fitting the experimental results using, for example, sigmoidal logistic regression (2 parameters, Sigma Plot v 11). Inhibition constants for the interaction between the N-terminally acylated peptide or oligopeptides of the invention and proteolytic enzymes were also obtained by performing the assay described above with varying concentrations of the inhibitor and substrate and analyzing the results, for example, by double reciprocal transformation as known to the person skilled in the art and described for example in Hubalek, F. et al., J. Med. Chem. 47, 1760-1766 (2004).

Molecule	Slope of the initial increase in fluorescence obtained during incubation with 0.001 mg/ml Chymotrypsin (Chymotrypsin [1])	EC50 (Chymotrypsin [1]) [µM]	Slope of the initial increase in fluorescence obtained during incubation with 0.001 mg/ml Trypsin (Trypsin)	EC50 (Trypsin) [µM]	half-life [2] [min]	RT (retention time during reverse phase HPLC as a measure of hydrophobicity) [3] [min]	further results
CCCCCCCCCCCCCC(=O)N[C@H](C)C(=O)N[C@H](C)C(=O)N1CCC[C@@H]1C(=O)N[C@H](Cc1ccccc1)C(=O)O [Example 2, N-tetradecanoyl-DAla-DAla-DPro-DPhe-OH] (Myristoyl-[dA][dA][dP][dF]-OH)	0.05	85	0.15	112	610	9.74	
CCCCCCCCCCCCCC(=O)N[C@@H](CCC(=O)O)C(=O)N[C@@H](C)C(=O)N[C@@H](C)C(=O)N1CCC[C@H]1C(=O)N[C@@H](Cc1ccccc1)C(=O)O [Example 13, N-tetradecanoyl-Glu-Ala-Ala-Pro-Phe-OH] (Myristoyl-EAAPF-OH)	0.00		0.12			5.19	Half Life fold increase (over solution w/o N-terminally acylated (oligo)peptide) (GI juice; compound 1 mM): 3.4; Half Life of insulin analogue (GI juice; compound 1 mM, 37° C.): 7.2 min
CCCCCCCCCCCCCC(=O)N[C@@H](CCC(=O)N[C@@H](C)C(=O)N1CCC[C@H]1C(=O)N[C@@H](Cc1ccccc1)C(=O)O)C(=O)O [Example 23, N-tetradecanoyl-γGlu-Ala-Pro-Phe-OH] ({Myristoyl-γGlu}-Ala-Pro-Phe-OH)		144		44	4.4	5.29	
CCCCCCCCCCCCCCCC(=O)N[C@@H](CCC(=O)N[C@@H](C)C(=O)N[C@@H](C)C(=O)N1CCC[C@H]1C(=O)N[C@@H](Cc1ccccc1)C(=O)O)C(=O)O [Example 135, N-hexadecanoyl-γGlu-Ala-Ala-Pro-Phe-OH] ({Palmitoyl-γGlu}-AAPF-OH)		45		40		7.5	Half Life fold increase (over solution w/o N-terminally acylated (oligo)peptide) (GI juice; compound 1 mM): 3.8; Half Life of GLP-1 analogue (GI juice; compound 1 mM, 37° C.): 0.9 min; Half Life of insulin analogue (GI juice; compound 1 mM, 37° C.): 9.2 min
CCCCCCCCCCCCCC(=O)N[C@@H](CCC(=O)N[C@H](C)C(=O)N1CCC[C@@H]1C(=O)N[C@H](Cc1ccccc1)C(=O)O)C(=O)O [Example 148, N-tetradecanoyl-γGlu-DAla-DPro-DPhe-OH] ({Myristoyl-γGlu}-[dA]-[dP]-[dF]-OH)		322			> 1000		
CCCCCCCCCCCCCC(=O)N[C@@H](Cc1c[nH]cn1)C(=O)N[C@@H](C)C(=O)N[C@@H](CCCNC(=N)N)C(=O)N1CCC[C@H]1C(=O)N[C@@H](Cc1ccccc1)C(=O)O [Example 178, N-tetradecanoyl-His-Ala-Arg-Pro-Phe-OH] (Myristoyl-HARPF-OH)		32		102	4.5		
N-decanoyl-Ala-Ala-Pro-Phe-OH (Decanoyl-AAPF-OH) [Example 33]						4.93	Ki (Chymotrypsin [4]): 850 µM
N-tetradecanoyl-γGlu-OEG-Ala-Ala-Pro-Phe-OH [Example 126]	0.05	102	0.30	> 500		5.02	
Soya bean trypsin inhibitor: soya bean trypsin inhibitor (Kunitz type, SBTI), protease inhibitor described in the public domain (protein, UniProt P01070 25-205, looked up) Trypsin inhibitor A: DFVLDNEGNPLENGGTYYILSDITAFGGIRAAPTGNERCPLTVVQSRNELDKGIGTIISSPYRIRFIAEGHPLSLKFDSFAVIMLCVGIPTEWSVVEDLPEGPAVKIGENKDAMDGWFRLERVSDDEFNNYKLVFCPQQAEDDKCGDIGISIDHDDGTRRLVVSKNKPLVVQFQKLDKESL							Half Life of insulin analogue (GI juice; inhibitor 0.1%, ± standard deviation): 505.3 ± 309.2 min
